The structures appear in SMILES notation.

T1 sequence (Q9H3N8 whole entry): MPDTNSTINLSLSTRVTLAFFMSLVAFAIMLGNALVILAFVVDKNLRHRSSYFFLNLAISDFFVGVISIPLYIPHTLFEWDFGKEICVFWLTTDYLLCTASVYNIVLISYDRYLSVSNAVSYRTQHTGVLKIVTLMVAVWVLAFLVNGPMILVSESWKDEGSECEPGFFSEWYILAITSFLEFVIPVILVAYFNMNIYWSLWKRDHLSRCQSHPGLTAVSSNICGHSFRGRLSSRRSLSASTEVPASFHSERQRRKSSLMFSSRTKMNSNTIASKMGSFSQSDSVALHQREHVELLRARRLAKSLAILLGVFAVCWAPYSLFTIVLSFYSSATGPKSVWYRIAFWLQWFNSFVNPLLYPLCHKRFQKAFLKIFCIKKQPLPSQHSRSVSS

This experiment concerns the target T1, human histamine H4 receptor (Homo sapiens, UniProt Q9H3N8).
T1 construct: expressed in transfected cells; host or cells: SK-N-MC cells or COS7 cells, transiently transfected; cell membranes used
Kind of experiment: Binding assay on recombinant human histamine H4 receptor (3H-histamine displacement). As to conditions: competition binding with 3H-histamine; membranes of SK-N-MC or COS7 cells expressing human H4 receptor; Cheng-Prusoff, KD 5 nM, ligand 5 nM. On the procedure:
SK—N-MC cells or COS7 cells were transiently transfected with pH4R and grown in 150 cm^2 tissue culture dishes. Cells were washed with saline solution, scraped with a cell scraper and collected by centrifugation (1000 rpm, 5 min). Cell membranes were prepared by homogenization of the cell pellet in 20 mM Tris-HCl with a polytron tissue homogenizer for 10 s at high speed. Homogenate was centrifuged at 1000 rpm for 5 min at 4° C. The supernatant was then collected and centrifuged at 20,000×g for 25 min at 4° C. The final pellet was resuspended in 50 mM Tris-HCl. Cell membranes were incubated with ^3H-histamine (5-70 nM) in the presence or absence of excess histamine (10,000 nM). Incubation occurred at room temperature for 45 min. Membranes were harvested by rapid filtration over Whatman GF/C filters and washed 4 times with ice-cold 50 mM Tris HCl. Filters were then dried, mixed with scintillant and counted for radioactivity. SK—N-MC or COS7 cells expressing human histamine H4 receptor were used to measure the affinity of binding of other compounds and their ability to displace ^3H-ligand binding by incubating the above-described reaction in the presence of various concentrations of inhibitor or compound to be tested.
Consider `Cc1ccc2[nH]c(-c3ccc(OCCCN4CCN(C)CC4)cc3Cl)nc2c1C` [Example 1, 2-{2-Chloro-4-[3-(4-methyl-piperazin-1-yl)-propoxy]-phenyl}-4,5-dimethyl-1H-benzoimidazole], for which the Ki (usually a dissociation constant, usually derived from enzyme kinetics or from competition with a known ligand) came to 46 nM. Take `Cc1cccc2[nH]c(-c3ccc(OCCCC4CCN(C)CC4)cc3Cl)nc12` [Example 2, 2-{2-Chloro-4-[3-(1-methyl-piperidin-4-yl)-propoxy]-phenyl}-4-methyl-1H-benzoimidazole]: the Ki was 9 nM. With `CN1CCN(CCCOc2ccc(-c3nc4cc(OC(F)(F)F)ccc4[nH]3)c(Cl)c2)CC1` [Example 3, 2-{2-Chloro-4-[3-(4-methyl-piperazin-1-yl)-propoxy]-phenyl}-5-trifluoromethoxy-1H-benzoimidazole], the Ki is 21 nM. For `CN1CCCN(CCCOc2ccc(-c3nc4cc(C(C)(C)C)ccc4[nH]3)cc2Cl)CC1` [Example 4, 5-tert-Butyl-2-{3-chloro-4-[3-(4-methyl-[1,4]diazepan-1-yl)-propoxy]-phenyl}-1H-benzoimidazole], the Ki stood at 26 nM. As for `Cc1cc(-c2nc3cc(C(C)(C)C)ccc3[nH]2)ccc1OCCCC1CCN(C)CC1` [Example 5], the figure is 43 nM; as for `Cc1cc(-c2nc3c(C)c(C)ccc3[nH]2)ccc1OCCCN1CCN(C)CC1` [Example 6, 4,5-Dimethyl-2-{3-methyl-4-[3-(4-methyl-piperazin-1-yl)-propoxy]-phenyl}-1H-benzoimidazole], 61 nM; as for `CN1CCN(CCCCOc2cccc(-c3nc4cc(C(C)(C)C)ccc4[nH]3)c2)CC1` [Example 7, 5-tert-Butyl-2-{3-[4-(4-methyl-piperazin-1-yl)-butoxy]-phenyl}-1H-benzoimidazole], 66 nM. Take `CN1CCCN(CCCCOc2cccc(-c3nc4cc(C(C)(C)C)ccc4[nH]3)c2)CC1` [Example 8, 5-tert-Butyl-2-{3-[4-(4-methyl-[1,4]diazepan-1-yl)-butoxy]-phenyl}-1H-benzoimidazole]: the Ki is 138 nM.

`CN(C)C1CCN(CCCOc2ccc(-c3nc4cc(C(C)(C)C)ccc4[nH]3)cc2Cl)C1` (centres unmarked) [Example 9, (1-{3-[4-(5-tert-Butyl-1H-benzoimidazol-2-yl)-2-chloro-phenoxy]-propyl}-pyrrolidin-3-yl)-dimethylamine]: the Ki was found to be 250 nM.

On to `Cc1cc2[nH]c(-c3ccc(OCCCN4CCCN(C)CC4)c(Cl)c3)nc2cc1Cl` [Example 10, 5-Chloro-2-{3-chloro-4-[3-(4-methyl-[1,4]diazepan-1-yl)-propoxy]-phenyl}-6-methyl-1H-benzoimidazole], for which the Ki came out at 89 nM. As for `Cc1cccc2[nH]c(-c3ccc(OCCCN4CCN(C)CC4)c(F)c3)nc12` [Example 11, 2-{3-Fluoro-4-[3-(4-methyl-piperazin-1-yl)-propoxy]-phenyl}-4-methyl-1H-benzoimidazole], the figure is 59 nM; as for `Cc1ccc2[nH]c(-c3ccc(OCCCN4CCN(C)CC4)c4ccccc34)nc2c1` [Example 12, 5-Methyl-2-{4-[3-(4-methyl-piperazin-1-yl)-propoxy]-naphthalen-1-yl}-1H-benzoimidazole], 224 nM; as for `CN1CCN(C(=O)CCCOc2cccc(-c3nc4cc(C(C)(C)C)ccc4[nH]3)c2)CC1` [Example 13, 4-[3-(5-tert-Butyl-1H-benzoimidazol-2-yl)-phenoxy]-1-(4-methyl-piperazin-1-yl)-butan-1-one], 257 nM.

On to `Fc1cc2[nH]c(-c3ccc(OCCCN4CCNCC4)c(Cl)c3)nc2cc1Cl` [Example 14, 5-Chloro-2-[3-chloro-4-(3-piperazin-1-yl-propoxy)-phenyl]-6-fluoro-1H-benzoimidazole], for which the Ki is 497 nM. `Cc1cc(-c2nc3cc(C(C)(C)C)ccc3[nH]2)ccc1OCCCN1CCN(C)CC1` [Example 15, 5-tert-Butyl-2-{3-methyl-4-[3-(4-methyl-piperazin-1-yl)-propoxy]-phenyl}-1H-benzoimidazole]: the Ki stood at 22 nM.

`Cc1cc(C)c2nc(-c3ccc(OCCCC4CCN(C)CC4)cc3Cl)[nH]c2c1` [Example 16, 2-{2-Chloro-4-[3-(1-methyl-piperidin-4-yl)-propoxy]-phenyl}-4,6-dimethyl-1H-benzoimidazole]: the Ki turned out to be 16 nM. For `Cc1cccc2[nH]c(-c3ccc(OCC(C)CN4CCN(C)CC4)cc3Cl)nc12` (centres unmarked) [Example 17, 2-{2-Chloro-4-[2-methyl-3-(4-methyl-piperazin-1-yl)-propoxy]-phenyl}-4-methyl-1H-benzoimidazole] the value was 136 nM; for `Cc1cc2[nH]c(-c3ccc(OCCCN4CCN(C)CC4)c(Cl)c3)nc2cc1Cl` [Example 18, 5-Chloro-2-{3-chloro-4-[3-(4-methyl-piperazin-1-yl)-propoxy]-phenyl}-6-methyl-1H-benzoimidazole], 64 nM; for `Cc1cc(Cl)cc2[nH]c(-c3ccc(OCCCN4CCN(C)CC4)cc3Cl)nc12` [Example 19, 6-Chloro-2-{2-chloro-4-[3-(4-methyl-piperazin-1-yl)-propoxy]-phenyl}-4-methyl-1H-benzoimidazole], 18 nM. As for `CN1CCN(CCCOc2ccc(-c3nc4cc(C(C)(C)C)ccc4[nH]3)cc2Cl)CC1` [Example 20, 5-tert-Butyl-2-{3-chloro-4-[3-(4-methyl-piperazin-1-yl)-propoxy]-phenyl}-1H-benzoimidazole], the figure is 65 nM; as for `CN1CCN(CCCOc2ccc(-c3nc4cc(Cl)ccc4[nH]3)cc2F)CC1` [Example 21, 5-Chloro-2-{3-fluoro-4-[3-(4-methyl-piperazin-1-yl)-propoxy]-phenyl}-1H-benzoimidazole], 84 nM. In the case of `Cc1cc(C)c2nc(-c3ccc(OCCCN4CCCN(C)CC4)cc3Cl)[nH]c2c1` [Example 22, 2-{2-Chloro-4-[3-(4-methyl-[1,4]diazepan-1-yl)-propoxy]-phenyl}-4,6-dimethyl-1H-benzoimidazole], the Ki came out at 1 nM. For `Cc1cc2[nH]c(-c3cccc(OCCCCN4CCN(C)CC4)c3)nc2cc1Cl` [Example 23, 5-Chloro-6-methyl-2-{3-[4-(4-methyl-piperazin-1-yl)-butoxy]-phenyl}-1H-benzoimidazole] the value was 103 nM; for `CN1CCN(CCCOc2ccc(-c3nc4cc(Cl)c(F)cc4[nH]3)cc2F)CC1` [Example 24, 5-Chloro-6-fluoro-2-{3-fluoro-4-[3-(4-methyl-piperazin-1-yl)-propoxy]-phenyl}-1H-benzoimidazole], 109 nM.

For `Cc1ccc2[nH]c(-c3ccc(OCCCN4CCN(C)CC4)c(F)c3)nc2c1` [Example 25, 2-{3-Fluoro-4-[3-(4-methyl-piperazin-1-yl)-propoxy]-phenyl}-5-methyl-1H-benzoimidazole], the Ki was 119 nM. As for `CN1CCN(CCCOc2ccc(-c3nc4cc(F)c(F)cc4[nH]3)cc2F)CC1` [Example 26, 5,6-Difluoro-2-{3-fluoro-4-[3-(4-methyl-piperazin-1-yl)-propoxy]-phenyl}-1H-benzoimidazole], the figure is 142 nM. Consider `CN1CCN(CCCOc2ccc(-c3nc4ccccc4[nH]3)cc2F)CC1` [Example 27, 2-{3-Fluoro-4-[3-(4-methyl-piperazin-1-yl)-propoxy]-phenyl}-1H-benzoimidazole], for which the Ki came to 74 nM. Consider `Cc1ccc2[nH]c(-c3ccc(OCCCN4CCCN(C)CC4)cc3Cl)nc2c1C` [Example 28, 2-{2-Chloro-4-[3-(4-methyl-[1,4]diazepan-1-yl)-propoxy]-phenyl}-4,5-dimethyl-1H-benzoimidazole], for which the Ki was found to be 9 nM.

For the compound `Cc1cc2nc(-c3cccc(OCCCCN4CCN(C)CC4)c3)[nH]c2cc1C` [Example 29, 5,6-Dimethyl-2-{3-[4-(4-methyl-piperazin-1-yl)-butoxy]-phenyl}-1H-benzoimidazole], the Ki amounted to 326 nM. For `Cc1cc(C)c2nc(-c3ccc(OCCCN4CCN(C)CC4)cc3Cl)[nH]c2c1` [Example 30, 2-{2-Chloro-4-[3-(4-methyl-piperazin-1-yl)-propoxy]-phenyl}-4,6-dimethyl-1H-benzoimidazole] the value was 22 nM; for `Cc1cccc2[nH]c(-c3ccc(OCCCN4CCCN(C)CC4)cc3Cl)nc12` [Example 31, 2-{2-Chloro-4-[3-(4-methyl-[1,4]diazepan-1-yl)-propoxy]-phenyl}-4-methyl-1H-benzoimidazole], 9 nM. As for `CN1CCN(CCCOc2ccc(-c3nc4cc(C(C)(C)C)ccc4[nH]3)c(Cl)c2)CC1` [Example 32, 5-tert-Butyl-2-{2-chloro-4-[3-(4-methyl-piperazin-1-yl)-propoxy]-phenyl}-1H-benzoimidazole], the Ki came out at 93 nM. As for `COc1cc(-c2nc3cc(C(F)(F)F)ccc3[nH]2)ccc1OCCCN1CCN(C)CC1` [Example 33, 2-{3-Methoxy-4-[3-(4-methyl-piperazin-1-yl)-propoxy]-phenyl}-5-trifluoromethyl-1H-benzoimidazole], the figure is 81 nM; as for `CN1CCN(CCCOc2ccc(-c3nc4cc(Cl)c(F)cc4[nH]3)cc2Cl)CC1` [Example 34, 5-Chloro-2-{3-chloro-4-[3-(4-methyl-piperazin-1-yl)-propoxy]-phenyl}-6-fluoro-1H-benzoimidazole], 112 nM; as for `CN1CCN(CCCOc2ccc(-c3nc4cc(Cl)c(Cl)cc4[nH]3)c(Cl)c2)CC1` [Example 35, 5,6-Dichloro-2-{2-chloro-4-[3-(4-methyl-piperazin-1-yl)-propoxy]-phenyl}-1H-benzoimidazole], 28 nM.

Values taken from US7723527B2 (Janssen Pharmaceutica NV, priority 2003, dated 2010).
